Results: ChEMBL document CHEMBL5104182, “Design and Synthesis of a 2-Amino-pyridine Derivative as a Potent CDK8 Inhibitor for Anti-colorectal Cancer Therapy” (J Med Chem, 2022)
Activity calls are given as the source filed them. No cut-off for these calls is given here.

Key:
HCT-116 [1] = test: Decrease in LRP6 expression in human HCT-116 cells at 1 to 4 uM incubated for 12 hrs by western blotting analysis; assay type: functional, cell-based; settings: dose 1-4 µM
[2] = Oral bioavailability in Sprague-Dawley rat at 10 mg/kg upto 24 hrs by HPLC analysis; assay type: ADME, organism-based; settings: in vivo
HCT-116 [3] = test: Induction of cell cycle arrest in human HCT-116 cells assessed as increase in cells at G1 phase measured after 48 hrs by flow cytometry; assay type: functional, cell-based
[4] = target: T1, Cyclin-dependent kinase 8 (Homo sapiens, UniProt P49336); test: Inhibition of CDK8 (unknown origin) assessed as inhibition rate
[5] = Toxicity in Balb/c mouse assessed as MPO level in serum at 1000 mg/kg, using gastric tube; assay type: organism-based; settings: in vivo, po, route ig
CT26 [6] = test: Anticancer activity against mouse CT26 cells transplanted in […] mouse assessed as reduction in tumor volume at 10 to 40 mg/kg, po daily measured after 21 days; assay type: functional, organism-based; settings: dose 10-40 mg/kg, time 21.0 day
HCT-116 [7] = test: Antiproliferative activity against sorafenib-resistant human HCT-116 cells assessed as cell viability incubated for 48 hrs by MTT assay; assay type: functional
[8] = MRT in Sprague-Dawley rat at 10 mg/kg, po upto 24 hrs by HPLC analysis; assay type: ADME, organism-based; settings: in vivo
[9] = Toxicity in Balb/c mouse assessed as ALT level in serum at 1000 mg/kg, using gastric tube; assay type: organism-based; settings: in vivo, po, route ig
[10] = Half life in Sprague-Dawley rat at 10 mg/kg, po upto 24 hrs by HPLC analysis; assay type: ADME, organism-based; settings: in vivo
[11] = AUC (0 to infinitive) in Sprague-Dawley rat at 10 mg/kg, po upto 24 hrs by HPLC analysis; assay type: ADME, organism-based; design: dose 10 mg/kg, time < 24 hrs, route po; settings: in vivo
HCT-116 [12] = test: Decrease in Lef expression in human HCT-116 cells at 1 to 4 uM incubated for 48 hrs by western blotting analysis; assay type: functional, cell-based; settings: dose 1-4 µM
[13] = Toxicity in ICR mouse assessed as lung damage at 1000 mg/kg, using gastric tube by H&E staining assay; assay type: organism-based; settings: in vivo, po, route ig
HCT-116 [14] = test: Induction of cell cycle arrest in human HCT-116 cells assessed as increase in cells at S phase measured after 48 hrs by flow cytometry; assay type: functional, cell-based
HCT-116 [15] = test: Decrease in beta-catenin expression in human HCT-116 cells at 1 to 4 uM incubated for 12 hrs by western blotting analysis; assay type: functional, cell-based; settings: dose 1-4 µM
[16] = target: T1, Cyclin-dependent kinase 8; test: Binding affinity to CDK8 in human HCT-116 cells assessed as increase in degradation temperature of protein by CETSA (reference value: 49 degC); assay type: cell-based
HCT-116 [17] = test: Reduction in P-gp expression in sorafenib-resistant human HCT-116 cells by Western blot analysis; assay type: functional, cell-based; settings: dose 1-4 µM, DDE = dose-dependent effect
CT26 [18] = test: In vivo inhibition of CDK8 in mouse CT26 cells transplanted in […] mouse assessed as downregulation of beta-catenin in tumor at 10 to 40 mg/kg, po daily measured after 21 days; assay type: functional, organism-based; settings: dose 10-40 mg/kg, time 21.0 day
[19] = AUC (0 to infinitive) in Sprague-Dawley rat at 2 mg/kg, iv upto 24 hrs by HPLC analysis; assay type: ADME, organism-based; design: time < 24 hrs, dose 2 mg/kg, route iv; settings: in vivo
Homo sapiens = species: Homo sapiens; test: Selectivity ratio of IC50 for human CDK6 to IC50 for human CDK8
[20] = Cytotoxicity against human GES1 cells assessed as cell viability incubated for 48 hrs by MTT assay; assay type: toxicity, cell-based
[21] = Toxicity in ICR mouse assessed as abnormal behavior at 1000 mg/kg, using gastric tube; assay type: organism-based; settings: in vivo, po, route ig
HCT-116 [22] = test: Decrease in beta-catenin/TCF/Lef combination expression in human HCT-116 cells at 1 to 4 uM incubated for 24 hrs by western blotting analysis; assay type: functional, cell-based; settings: dose 1-4 µM
HCT-116 [23] = test: Decrease in CTD phosphorylation in human HCT-116 cells at 1 to 4 uM incubated for 48 hrs by western blotting analysis; assay type: functional, cell-based; settings: dose 1-4 µM
[24] = Toxicity in ICR mouse assessed as kidney damage at 1000 mg/kg, using gastric tube by H&E staining assay; assay type: organism-based; settings: in vivo, po, route ig
HCT-116 [25] = test: Induction of cell cycle arrest in human HCT-116 cells assessed as decrease in p-Rb S780 level incubated for 24 hrs by Western blot analysis; assay type: functional, cell-based
HCT-116 [26] = test: Decrease in TCF1 expression in human HCT-116 cells at 1 to 4 uM incubated for 48 hrs by western blotting analysis; assay type: functional, cell-based; settings: dose 1-4 µM
[27] = target: T1, Cyclin-dependent kinase 8; test: Binding affinity to CDK8 in human HCT-116 cells by measuring competition with biotinylated (1-(4-((6-aminopyridin-3-yl)oxy)phenyl)-3-(3-(trifluoromethyl)-phenyl)urea hydrochloride); assay type: cell-based
[28] = Half life in Sprague-Dawley rat at 2 mg/kg, iv upto 24 hrs by HPLC analysis; assay type: ADME, organism-based; settings: in vivo
HCT-116 [29] = test: Decrease in C-Myc expression in human HCT-116 cells at 1 to 4 uM incubated for 48 hrs by western blotting analysis; assay type: functional, cell-based; settings: dose 1-4 µM
[30] = target: T1, Cyclin-dependent kinase 8; test: Inhibition of CDK8 in human HCT-116 cells assessed as inhibition of […] phosphorylation at Tyr701 by Western blot analysis; assay type: cell-based
HCT-116 [31] = test: Induction of cell cycle arrest in human HCT-116 cells assessed as increase in E2F1 level incubated for 24 hrs by Western blot analysis; assay type: functional, cell-based
[32] = Cmax in Sprague-Dawley rat at 2 mg/kg, iv upto 24 hrs by HPLC analysis; assay type: ADME, organism-based; design: dose 2 mg/kg, time < 24 hrs, route iv; settings: in vivo
HCT-116 [33] = test: Potency index, ratio of Sorafenib IC50 to test compound IC50 for antiproliferative activity against human HCT-116 cells incubated for 48 hrs by MTT assay; assay type: functional
[34] = MRT in Sprague-Dawley rat at 2 mg/kg, iv upto 24 hrs by HPLC analysis; assay type: ADME, organism-based; settings: in vivo
HCT-116 [35] = test: Decrease in WNT-3alpha expression in human HCT-116 cells at 1 to 4 uM incubated for 12hrs by western blotting analysis; assay type: functional, cell-based; settings: dose 1-4 µM
CT26 [36] = test: In vivo inhibition of CDK8 in mouse CT26 cells transplanted in […] mouse assessed as upregulation of E2F1 in tumor at 10 to 40 mg/kg, po daily measured after 21 days; assay type: functional, organism-based; settings: dose 10-40 mg/kg, time 21.0 day
HCT-116 [37] = test: Decrease in beta-catenin/TCF combination expression in human HCT-116 cells transfected with TOPFLASH at 1 to 4 uM incubated for 24 hrs by luciferase assay; assay type: functional, cell-based; settings: dose 1-4 µM
HCT-116 [38] = test: Decrease in Dvl2 expression in human HCT-116 cells at 1 to 4 uM incubated for 12 hrs by western blotting analysis; assay type: functional, cell-based; settings: dose 1-4 µM
[39] = target: Cyclin-dependent kinase 7 (Homo sapiens, UniProt P50613); test: Inhibition of CDK7 (unknown origin) assessed as inhibition rate
HCT-116 [40] = test: Induction of cell cycle arrest in human HCT-116 cells assessed as decrease in CDK6 level incubated for 24 hrs by Western blot analysis; assay type: functional, cell-based
HCT-116 [41] = test: Decrease in Cyclin D1 expression in human HCT-116 cells at 1 to 4 uM incubated for 48 hrs by western blotting analysis; assay type: functional, cell-based; settings: dose 1-4 µM
[42] = Cmax in Sprague-Dawley rat at 10 mg/kg, po upto 24 hrs by HPLC analysis; assay type: ADME, organism-based; design: time < 24 hrs, dose 10 mg/kg, route po; settings: in vivo
[43] = Toxicity in ICR mouse assessed as spleen damage at 1000 mg/kg, using gastric tube by H&E staining assay; assay type: organism-based; settings: in vivo, po, route ig
HCT-116 [44] = test: Antiproliferative activity against human HCT-116 cells assessed as cell viability incubated for 48 hrs by MTT assay; assay type: functional

T1 sequence (P49336 whole entry): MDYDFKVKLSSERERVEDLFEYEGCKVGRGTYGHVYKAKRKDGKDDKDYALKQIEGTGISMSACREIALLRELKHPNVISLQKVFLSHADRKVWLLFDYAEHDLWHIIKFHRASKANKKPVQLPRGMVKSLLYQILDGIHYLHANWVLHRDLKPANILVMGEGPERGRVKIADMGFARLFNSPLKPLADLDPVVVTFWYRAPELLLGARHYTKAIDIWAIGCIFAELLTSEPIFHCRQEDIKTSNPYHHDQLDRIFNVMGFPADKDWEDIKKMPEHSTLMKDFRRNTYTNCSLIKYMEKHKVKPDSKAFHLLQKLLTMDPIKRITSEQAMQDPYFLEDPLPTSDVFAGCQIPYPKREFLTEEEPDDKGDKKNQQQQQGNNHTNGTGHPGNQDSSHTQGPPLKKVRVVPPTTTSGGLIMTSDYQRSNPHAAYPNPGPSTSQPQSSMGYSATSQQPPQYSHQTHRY
Sequence of Cyclin-dependent kinase 7 (P50613 whole entry): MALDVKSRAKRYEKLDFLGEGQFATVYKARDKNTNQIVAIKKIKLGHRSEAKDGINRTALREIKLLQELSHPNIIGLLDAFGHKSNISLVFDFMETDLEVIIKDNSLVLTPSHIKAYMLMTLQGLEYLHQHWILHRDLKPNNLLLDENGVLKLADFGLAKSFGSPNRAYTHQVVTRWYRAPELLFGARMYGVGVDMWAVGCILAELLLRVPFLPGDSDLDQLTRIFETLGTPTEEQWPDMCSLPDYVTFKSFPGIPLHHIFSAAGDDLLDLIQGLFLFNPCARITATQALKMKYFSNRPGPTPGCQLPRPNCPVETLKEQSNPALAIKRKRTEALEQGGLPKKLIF

SMILES: Nc1ccc(Oc2ccc(NC(=O)Nc3cccc(C(F)(F)F)c3)cc2)cn1
- Activity (HCT-116 [1]): Active
- bioavailability [2]: 31.7%
- Activity (HCT-116 [3]): Active
- IC50 [4]: 46.5 nM
- Activity [5]: Non-Toxic
- Activity (CT26 [6]): Active
- GI50 (HCT-116 [7]): 17500 nM
- MRT [8]: 1.6 h
- Activity [9]: Non-Toxic
- half-life [10]: 1.1 h
- AUC(0-inf) [11]: 665 ng·h/mL
- Activity (HCT-116 [12]): Active
- Activity [13]: Non-Toxic
- Activity (HCT-116 [14]): Active
- Activity (HCT-116 [15]): Active
- Tm [16]: 55 °C
- Activity (HCT-116 [17]): Dde
- Activity (CT26 [18]): Active
- AUC(0-inf) [19]: 382 ng·h/mL
- Ratio IC50 (Homo sapiens): 2
- GI50 at 48 h [20]: 62700 nM
- Activity [21]: Non-Toxic
- Activity (HCT-116 [22]): Active
- Activity (HCT-116 [23]): Active
- Activity [24]: Non-Toxic
- Activity (HCT-116 [25]): Active
- Activity (HCT-116 [26]): Active
- Activity [27]: Active
- half-life [28]: 0.5 h
- Activity (HCT-116 [29]): Active
- inhibition [30]: Active
- Activity (HCT-116 [31]): Active
- Cmax [32]: 318 ng/mL
- Ratio (HCT-116 [33]): 3.6
- MRT [34]: 0.9 h
- Activity (HCT-116 [35]): Active
- Activity (CT26 [36]): Active
- Activity (HCT-116 [37]): Active
- Activity (HCT-116 [38]): Active
- IC50 [39]: 99.6 nM
- Activity (HCT-116 [40]): Active
- Activity (HCT-116 [41]): Active
- Cmax [42]: 453 ng/mL
- Activity [43]: Non-Toxic
- GI50 (HCT-116 [44]): 1200 nM
